Results from ChEMBL document CHEMBL1136096, “Design and biological evaluation of novel antioxidants containing N-t-Butyl-N-hydroxylaminophenyl moieties” (Bioorg Med Chem Lett, 2003).

Assays:
Assay type in all cases: functional
Gerbillinae [1] = experiment: In vitro inhibitory activity against lipid peroxidation in gerbils
Gerbillinae [2] = experiment: In vivo neuroprotective activity in gerbils (neuronal cell survival) before ischemic injury
Gerbillinae [3] = experiment: In vivo neuroprotective activity in gerbils (neuronal cell survival) after ischemic injury

Structure (SMILES)	IC50 (Gerbillinae [1]) [µM]	Cell Survival (Gerbillinae [2]) [%]	Cell Survival (Gerbillinae [3]) [%]
CC(C)(C)N(O)c1ccc(C(=O)NCc2ccccn2)cc1	11.1		
CC(C)(C)N(O)c1ccc(C(=O)Nc2nccs2)cc1	1.44	57	81
CC(C)(C)N(O)c1ccc(C(=O)Nc2ccccn2)cc1	4.3		
O=c1c2ccccc2[se]n1-c1ccccc1 [EBSELEN]	68.9	58	58
